Where “and” joins values, the source holds several entries; their conditions need not be identical. Identical values can stand only once.
Assays:
[1] = xn = mol fraction of the nth substance listed; settings: 101 kPa

CC(=O)O.OCCNCCO
viscosity [mPa·s]
Settings	293.15 K	298.15 K	303.15 K	308.15 K	313.15 K	318.15 K	323.15 K
100 kPa	5750	–	2248	–	1003	–	491.7
101.3 kPa	2115	1363	905.4	617.3	431.4	308.3	225

CC(=O)OCCC(C)C
viscosity
Settings	293.15 K	303.15 K	313.15 K
101 kPa	0.86 mPa·s	0.743 mPa·s and 0.7175 mPa·s and 0.7168 mPa·s	0.642 mPa·s
101.3 kPa	–	0.6997 mPa·s	–

CC(C)COCCO
Settings	viscosity [mPa·s]
298.15 K, 101 kPa	3.33

CCC(=O)O.CCC(=O)[O-].CC[NH+](CC)CCO
101 kPa
Settings	viscosity [mPa·s]
293.15 K	88.32
298.15 K	66.16
303.15 K	50.6
308.15 K	39.4
313.15 K	31.21
318.15 K	25.1
323.15 K	20.46

CCCC(=O)[O-].[NH3+]CCO
101 kPa
Settings	viscosity [mPa·s]
293.15 K	3077
298.15 K	2071
303.15 K	1434
308.15 K	1011
313.15 K	733.5
318.15 K	539.6
323.15 K	397.8

CCCCCCCC/C=C\CCCCCCCC(=O)OCC
viscosity
Settings	293.15 K	298.15 K	303.15 K	308.15 K	313.15 K	318.15 K	323.15 K
100 kPa	6.414 mPa·s	5.653 mPa·s	4.986 mPa·s	4.435 mPa·s and 4.424 mPa·s	3.919 mPa·s	3.554 mPa·s	3.214 mPa·s
101 kPa	6.413 mPa·s	5.653 mPa·s	4.986 mPa·s	4.424 mPa·s	3.918 mPa·s	3.554 mPa·s	3.214 mPa·s

CCCCCCCCCCCCn1cc[n+](C)c1.O=S(=O)([N-]S(=O)(=O)C(F)(F)F)C(F)(F)F
100 kPa
Settings	viscosity
298 K	135.9 mPa·s and 150.3 mPa·s
303 K	102.5 mPa·s and 114.4 mPa·s
308 K	79.3 mPa·s and 88.7 mPa·s
313 K	62.31 mPa·s and 70.09 mPa·s
318 K	49.81 mPa·s and 56.18 mPa·s
323 K	39.98 mPa·s and 45.26 mPa·s

CCCCn1cc[n+](C)c1C.O=S(=O)([N-]S(=O)(=O)C(F)(F)F)C(F)(F)F
101.3 kPa
Settings	viscosity [mPa·s]
293.15 K	132.9
303.15 K	78.56
308.15 K	62.2
313.15 K	50.15
318.15 K	41.04
323.15 K	34.04

CCCOCC(C)OCC(C)O (stereo not drawn)
101.33 kPa
Settings	viscosity [mPa·s]
298.15 K	4.001
308.15 K	2.986
318.15 K	2.271

CCOP(=O)([O-])OCC.CC[N+]1(C)CCCC1
100 kPa
Settings	viscosity [mPa·s]
293.15 K	440.8
298.15 K	306.8
303.15 K	220
308.15 K	164.1
313.15 K	121.4
318.15 K	92.72
323.15 K	72.98

CCOP(OCC)OCC
Settings	viscosity [mPa·s]
298.15 K, 101 kPa	0.698

CN(C)CCCN
viscosity
Settings	293.15 K	303.15 K	308.15 K	313.15 K	318.15 K	323.15 K
100 kPa	1.079 mPa·s	0.8997 mPa·s	–	0.7611 mPa·s	–	0.6553 mPa·s
101 kPa	–	0.941 mPa·s	0.8773 mPa·s and 0.862 mPa·s	0.8098 mPa·s and 0.793 mPa·s	0.7531 mPa·s and 0.731 mPa·s	0.7013 mPa·s and 0.678 mPa·s

O=C(O)C1CCCCC1
101 kPa
Settings	viscosity [mPa·s]
310 K	13.2
320 K	9.26

C=C(C)C(=O)OCc1ccccc1 + O=C1CCCCC1
viscosity [mPa·s], [1]
Settings	x2 = 0.1	x2 = 0.1999	x2 = 0.3	x2 = 0.3999	x2 = 0.5	x2 = 0.6	x2 = 0.7	x2 = 0.8	x2 = 0.9
298.15 K	2.208	2.141	2.079	2.038	2.002	1.972	1.95	1.943	1.934
308.15 K	1.816	1.765	1.718	1.687	1.656	1.632	1.617	1.602	1.589
318.15 K	1.519	1.484	1.447	1.422	1.398	1.383	1.369	1.356	1.348

CC(=O)OCCC(C)C + O=[N+]([O-])c1ccccc1
viscosity [mPa·s], [1]
Settings	298.15 K	308.15 K
x1 = 0.0448	1.721	1.488
x1 = 0.1512	1.567	1.367
x1 = 0.249	1.439	1.267
x1 = 0.3494	1.321	1.174
x1 = 0.4412	1.222	1.096
x1 = 0.5	1.164	1.05
x1 = 0.5486	1.118	1.014
x1 = 0.6489	1.03	0.945
x1 = 0.7486	0.951	0.882
x1 = 0.8513	0.876	0.823
x1 = 0.9464	0.814	0.773

CC(=O)OCCC(C)C + c1ccccc1
viscosity [mPa·s], [1]
Settings	298.15 K	308.15 K
x1 = 0.0442	0.606	0.532
x1 = 0.1509	0.614	0.547
x1 = 0.2507	0.623	0.563
x1 = 0.3514	0.635	0.58
x1 = 0.4526	0.65	0.6
x1 = 0.4814	0.655	0.606
x1 = 0.5508	0.667	0.621
x1 = 0.6491	0.686	0.644
x1 = 0.7484	0.709	0.67
x1 = 0.8475	0.735	0.698
x1 = 0.9443	0.763	0.728

CCOP(OCC)OCC + c1ccncc1
[1], 298.15 K
Settings	viscosity [mPa·s]
x1 = 0.2	0.792
x1 = 0.4	0.76
x1 = 0.6	0.738
x1 = 0.8	0.707
